Reference: patent publication US10738028B2, “Spiro three-membered ring, spiro five-membered ring peptide deformylase inhibitor and use thereof in antibacteria and anti-tumor” (priority 2016, dated 2020)

Experiments:
Format in all cases: cell-based
[1] = system: Enterococcus faecalis (EFA); experiment: MIC, two-fold agar dilution (CLSI), clinical isolates
In short: (§1)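 Susceptibility was tested using CLSI two-fold agar dilution against the strains examined.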

[2] = system: Enterococcus faecium (EFM); experiment: as above
In short: as §1

[3] = system: Escherichia coli (including ESBLs, non-ESBLs); experiment: as above
In short: as §1

[4] = system: Moraxella catarrhalis (BCA); experiment: as above
In short: as §1

[5] = system: Streptococcus pneoumoniae (SPN); experiment: as above
In short: as §1

[6] = system: methicillin-resistant Staphylococcus aureus (MRSA); experiment: as above
In short: as §1

[7] = system: methicillin-resistant Staphylococcus epidermidis (MRSE); experiment: as above
In short: as §1

[8] = system: methicillin-sensitive Staphylococcus aureus (MSSA); experiment: as above
In short: as §1

[9] = system: methicillin-sensitive Staphylococcus epidermidis (MSSE); experiment: as above
In short: as §1

[10] = system: HCT-116 colorectal cancer cell line; experiment: CCK-8 proliferation inhibition; conditions: concentration of 30 μM, 72 hours, CCK-8
In short: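 Cells seeded at 2000 cells/well, cultured overnight at 37 °C, 5% CO2, then exposed to compound (DMSO; control 1‰ DMSO) for 72 h in McCoy's 5A with 10% newborn bovine serum. Viability read with 1:10 diluted CCK-8.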

[11] = system: A549 lung cancer cell line; experiment: CCK-8 proliferation inhibition; conditions: Homo sapiens, A549, 72 h, concentration of 30 μM
In short: (§2)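 Plating at 2000 cells/well, then incubation overnight at 37° C. Next, a range of compound concentrations for 72 hours (control 1‰ DMSO). Finally, medium decanted and CCK-8 diluted 1:10 added.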

[12] = system: BEL-7402 liver cancer cell line; experiment: CCK-8 proliferation inhibition; conditions: concentration of 30 μM
In short: as §2

[13] = system: MGC-803 gastric cancer cell line; experiment: CCK-8 proliferation inhibition; conditions: Homo sapiens, MGC-803, 72 h, concentration of 30 μM
In short: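 Cells seeded at 2000 cells/well, cultured overnight at 37 °C, 5% CO2, then exposed 72 h to compound dilutions in medium with 10% newborn bovine serum (1‰ DMSO control). Viability read with 1:10 diluted CCK-8 solution. Media: PC3 in F12; MGC-803 and Jurkat in 1640; MCF-7 in DMEM high glucose.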

CCCC[C@H](CC(=O)NO)C(=O)N1CC2(CC2)C[C@H]1C(=O)Nc1nc(C)cs1 [Example 51, (S)-5-((R)-2-(2-(hydroxyamino)-2-oxoethyl)hexanoyl)-N-(4-methylthiazol-2-yl)-5-spiro[2.4]heptane-6-carboxamide]
0.06 µg/mL: Anti-bacterial activity (MIC), strain MRSE 15-1 ([7]; clinical isolate MRSE 15-1) | Anti-bacterial activity (MIC), strain MSSA 15-5 ([8]; clinical isolate MSSA 15-5) | Anti-bacterial activity (MIC), strain MSSE 15-5 ([9]; clinical isolate MSSE 15-5) | Anti-bacterial activity (MIC), strain MSSE 15-6 ([9]; clinical isolate MSSE 15-6)
2 µg/mL: Anti-bacterial activity (MIC), strain EFA 15-3 ([1]; clinical isolate EFA 15-3) | Anti-bacterial activity (MIC), strain EFM 15-1 ([2]; clinical isolate EFM 15-1) | Anti-bacterial activity (MIC), strain EFM 15-2 ([2]; clinical isolate EFM 15-2) | Anti-bacterial activity (MIC), strain EFM 15-4 ([2]; clinical isolate EFM 15-4) | Anti-bacterial activity (MIC), strain EFM 15-6 ([2]; clinical isolate EFM 15-6) | Anti-bacterial activity (MIC), strain BCA 14-1 ([4]; clinical isolate BCA 14-1) | Anti-bacterial activity (MIC), strain BCA 14-4 ([4]; clinical isolate BCA 14-4)
> 50%: inhibition at 30 µM ([10]; Homo sapiens, HCT-116, 72 h, read-out: HCT116 inhibition rate/%) | inhibition at 30 µM ([12]; Homo sapiens, Bel-7402, 72 h)
0.25 µg/mL: Anti-bacterial activity (MIC), strain MRSA 15-1 ([6]; clinical isolate MRSA 15-1) | Anti-bacterial activity (MIC), strain MRSE 15-2 ([7]; clinical isolate MRSE 15-2) | Anti-bacterial activity (MIC), strain MRSE 15-3 ([7]; clinical isolate MRSE 15-3) | Anti-bacterial activity (MIC), strain MRSE 15-7 ([7]; clinical isolate MRSE 15-7) | Anti-bacterial activity (MIC), strain MSSA 15-3 ([8]; clinical isolate MSSA 15-3)
16 µg/mL: Anti-bacterial activity (MIC), strain ECO+ 15-1 ([3]; clinical isolate ECO+ 15-1)
1 µg/mL: Anti-bacterial activity (MIC), strain EFM 15-5 ([2]; clinical isolate EFM 15-5) | Anti-bacterial activity (MIC), strain BCA 14-6 ([4]; clinical isolate BCA 14-6) | Anti-bacterial activity (MIC), strain BCA 14-8 ([4]; clinical isolate BCA 14-8) | Anti-bacterial activity (MIC), strain MRSA 15-2 ([6]; clinical isolate MRSA 15-2)
> 32 µg/mL: Anti-bacterial activity (MIC), strain ECO+ 15-2 ([3]; clinical isolate ECO+ 15-2) | Anti-bacterial activity (MIC), strain ECO+ 15-3 ([3]; clinical isolate ECO+ 15-3) | Anti-bacterial activity (MIC), strain ECO− 15-1 ([3]; clinical isolate ECO− 15-1) | Anti-bacterial activity (MIC), strain ECO− 15-2 ([3]; clinical isolate ECO− 15-2) | Anti-bacterial activity (MIC), strain ECO− 15-3 ([3]; clinical isolate ECO− 15-3) | Anti-bacterial activity (MIC), strain ECO− 15-4 ([3]; clinical isolate ECO− 15-4)
8 µg/mL: Anti-bacterial activity (MIC), strain EFA 15-1 ([1]; clinical isolate EFA 15-1) | Anti-bacterial activity (MIC), strain EFA 15-2 ([1]; clinical isolate EFA 15-2) | Anti-bacterial activity (MIC), strain EFA 15-4 ([1]; clinical isolate EFA 15-4) | Anti-bacterial activity (MIC), strain EFA 15-5 ([1]; clinical isolate EFA 15-5) | Anti-bacterial activity (MIC), strain EFA 15-6 ([1]; clinical isolate EFA 15-6) | Anti-bacterial activity (MIC), strain EFA 15-9 ([1]; clinical isolate EFA 15-9) | Anti-bacterial activity (MIC), strain SPN 16-2 ([5]; clinical isolate SPN 16-2)
40%: inhibition at 30 µM [13]
65%: HCT116 inhibition rate/% ([10]; 30 µM)
44%: inhibition at 30 µM [11]
0.5 µg/mL: Anti-bacterial activity (MIC), strain EFM 15-3 ([2]; clinical isolate EFM 15-3) | Anti-bacterial activity (MIC), strain BCA 14-5 ([4]; clinical isolate BCA 14-5) | Anti-bacterial activity (MIC), strain BCA 14-7 ([4]; clinical isolate BCA 14-7) | Anti-bacterial activity (MIC), strain BCA 14-10 ([4]; clinical isolate BCA 14-10) | Anti-bacterial activity (MIC), strain SPN 16-4 ([5]; clinical isolate SPN 16-4) | Anti-bacterial activity (MIC), strain MRSA 15-4 ([6]; clinical isolate MRSA 15-4) | Anti-bacterial activity (MIC), strain MSSA 15-6 ([8]; clinical isolate MSSA 15-6)
32 µg/mL: Anti-bacterial activity (MIC), strain ECO+ 15-4 ([3]; clinical isolate ECO+ 15-4)
0.125 µg/mL: Anti-bacterial activity (MIC), strain MSSA 15-4 ([8]; clinical isolate MSSA 15-4) | Anti-bacterial activity (MIC), strain MSSE 15-3 ([9]; clinical isolate MSSE 15-3) | Anti-bacterial activity (MIC), strain MSSE 15-4 ([9]; clinical isolate MSSE 15-4)
68%: Inhibition of proliferation, Liver cancer BEL-7402 ([12]; 72 hours, 30 µM)
0.2 µg/mL: Anti-bacterial activity (MIC), strain MRSA 15-3 ([6]; clinical isolate MRSA 15-3)
